Numbers after ± are expanded uncertainties.
Key:
[1] = refractive index (Na D-line) (dimensionless); conditions: 298.15 K; 101.33 kPa; Liquid; Standard Abbe refractometry
[2] = 298.15 K, 101.33 kPa, Liquid

C[C@H](N)C(=O)[O-].C[N+](C)(C)CCO [2-hydroxy-N,N,N-trimethylethanaminium L-alaninate]
refractive index [1]: 1.4868 ± 0.0006
viscosity ([2]; Falling or rolling sphere viscometry): 715 ± 70 mPa·s
mass density ([2]; Vibrating tube method): 1122.56 ± 1.1 kg/m3

Source: the NIST ThermoML archive (doi:10.1016/j.jct.2018.12.022)
